In patent US20030175678A1, “Methods for identifying genes regulating desired cell phenotypes” (priority 2001, published 2003):

Tests used:
[1] = test system: C. dejecta suspension culture; test: Differential induction of catechin accumulation in Crassula dejecta suspension culture; format: cell-based
Protocol: Differential induction of catechin derivatives in the C. dejecta suspension culture was performed in 250 mL conical flasks containing 100 mL of B105 growth medium or 100 mL of a secondary metabolite production medium B49 (Gamborg's B5, with 5% sucrose, and no hormones), inoculated with 40 mL of 21 day old suspension culture. The cultures were incubated under low light conditions (approximately 30 lux) at 25° C. Cultures were treated using one of each of the following protocols:
(1) B105 growth medium (no additions) used as is;
(3) Filter-sterilized aqueous zeatin (10 μM) was added at day 7 to a culture grown on B105 medium;
(4) B49 production medium (no additions) used as is;
(6) Filter-sterilized clofibrate (0.5 mM final concentration) was added at day 7 to a culture grown on B49 medium. Ten milliliters of culture samples were taken at regular intervals for 17 days following the day of subculture to B105 or B49 medium. All culture samples were centrifuged for five minutes at 4000 rpm, and the cell residue was freeze-dried. Extraction, sample preparation, and HPLC analysis were performed as described in Example 1.

[2] = test system: PAL, CHS, and F3-OH; test: Quantitative RT-PCR of PAL, CHS and F3-OH transcripts in C. barkleyi cells; format: cell-based, Crassula barkleyi; settings: after 24 hours of treatment, relative to TBP
Protocol: (§1) Differential induction of mRNA transcripts associated with the synthesis of catechin derivatives in the C. barkleyi suspension culture (as described in Example 2) and the C. dejecta suspension culture (as described in Example 3) were performed in 250 mL conical flasks containing 100 mL of a secondary metabolite production medium B49 (Gamborg's B5, 5% sucrose, no hormones), inoculated with 16 mL of a 14 day old suspension culture (C. barkleyi) or 40 mL of a 21 day old suspension culture (C. dejecta). The cultures were incubated under low light conditions (approximately 30 lux) at 25° C.
(§2) Induction of mRNA usually occurs within 48 hours of receipt of an inducing signal. Accordingly, samples were taken at intervals of 2, 4, 6, 10, 15, 24, and 48 hours following the above treatments. Samples, sufficient to give at least 1 mL packed cell volume, were centrifuged for five minutes at 4000 rpm and the supernatant removed. […]
(§3) This mixture was incubated at 42° C. for 50 min then denatured at 70° C. for 15 min and stored at −20° C., after a thirty-fold dilution with distilled water. An aliquot of this reaction was then used to quantify the relative abundance of each of the three genes (PAL, CHS, F3-OH) to the invariant one (TBP), using a real time quantification PCR machine (Perkin Elmer 7700) and the previously described oligonucleotides (shown in FIG. 7) in the following conditions: […]

[3] = test system: PAL, CHS, and F3-OH; test: Quantitative RT-PCR of PAL, CHS and F3-OH transcripts in C. dejecta cells; format: cell-based, Crassula dejecta; settings: after 48 hours
Protocol: as §1, §2, §3

[4] = test system: terpene cyclase; test: RT-PCR of terpene cyclase in Ajuga reptans cultures; format: cell-based; settings: 24 hours after treatment
Protocol: To investigate the pattern of regulation of the terpene cyclase identified as described above, primers were synthesized that corresponded to sequence at each end of the RACE fragment. Ajuga reptans cultures were subject to the treatments described above, and RNA collected eight and 24 hours after treatment. RT-PCR was carried out using an […]™ One-Step RT-PCR kit (Clontech Laboratories, Palo Alto, Calif.). […] The primers also appear to be amplifying a constitutive cyclase.

[5] = test system: taxadiene synthase; test: PCR of taxadiene synthase in Taxus baccata callus cultures; format: cell-based; settings: callus harvested 24 and 48 hours after treatment, 20-25 PCR cycles
Protocol: Callus was harvested 24 and 48 hours after treatment. An untreated control was also harvested. Samples (500 mg) were frozen in liquid nitrogen and ground to a fine powder. RNA was prepared with an RNEASY™ kit (Qiagen, Valencia, Calif.) as described above.
RNA samples (1.75 μg) from 24 hours post-treatment cultures of Taxus baccata were reverse transcribed using an OMNISCRIPT™ RT kit (Qiagen) with an oligo-dT12-18 primer (Sigma-Aldrich Company, Poole, Dorset, UK). Aliquots (≡0.175 μg RNA) were subject to PCR using a Taq PCR Master Mix kit (Qiagen). Primers were designed from conserved regions of the taxadiene synthases from Taxus chinensis and Taxus brevifolia, and validated by amplification of DNA from Taxus baccata. PCR was carried out at an annealing temperature of 50° C. for 30′; extension was for 1 min at 72° C. Samples were taken after 15, 20, 25, and 30 cycles and run on an agarose gel (FIG. 13). After 20 cycles, a band of the expected size is present in the treated samples (slightly more in the 24 hour harvest) but not in the control.

## CC/C=C\CC1C(=O)CCC1CC(=O)OC (stereo not drawn) [methyl jasmonate]
[1]; cultures grown on both B105 and B49 media, added at day 7
  induction of EGCG and other catechins: induced EGCG and other catechins
[1]; on B49, methyl jasmonate added at day 7
  accumulation of EGCG: ten-fold
[2]
  induction of transcription of PAL, CHS, and F3-OH: at least twenty fold
[3]
  induction of PAL, CHS, and F3-OH genes: at least 6 fold
[4]
  induction of terpene cyclase (RT-PCR): induced
[5]
  induction of taxadiene cyclase: specific induction of the taxadiene cyclase
